In ChEMBL document CHEMBL5465560, “Selectivity Literature for EUbOPEN Chemogenomic Library” (2024):

Columns and labels:
[1] = target: T1, Myosin light chain kinase (Homo sapiens) (UniProt Q32MK0); test: Selectivity interaction (KinomeScan (DiscoverX)) EUB0000695a MYLK3; conditions: at 100 nM
T1 sequence (whole entry): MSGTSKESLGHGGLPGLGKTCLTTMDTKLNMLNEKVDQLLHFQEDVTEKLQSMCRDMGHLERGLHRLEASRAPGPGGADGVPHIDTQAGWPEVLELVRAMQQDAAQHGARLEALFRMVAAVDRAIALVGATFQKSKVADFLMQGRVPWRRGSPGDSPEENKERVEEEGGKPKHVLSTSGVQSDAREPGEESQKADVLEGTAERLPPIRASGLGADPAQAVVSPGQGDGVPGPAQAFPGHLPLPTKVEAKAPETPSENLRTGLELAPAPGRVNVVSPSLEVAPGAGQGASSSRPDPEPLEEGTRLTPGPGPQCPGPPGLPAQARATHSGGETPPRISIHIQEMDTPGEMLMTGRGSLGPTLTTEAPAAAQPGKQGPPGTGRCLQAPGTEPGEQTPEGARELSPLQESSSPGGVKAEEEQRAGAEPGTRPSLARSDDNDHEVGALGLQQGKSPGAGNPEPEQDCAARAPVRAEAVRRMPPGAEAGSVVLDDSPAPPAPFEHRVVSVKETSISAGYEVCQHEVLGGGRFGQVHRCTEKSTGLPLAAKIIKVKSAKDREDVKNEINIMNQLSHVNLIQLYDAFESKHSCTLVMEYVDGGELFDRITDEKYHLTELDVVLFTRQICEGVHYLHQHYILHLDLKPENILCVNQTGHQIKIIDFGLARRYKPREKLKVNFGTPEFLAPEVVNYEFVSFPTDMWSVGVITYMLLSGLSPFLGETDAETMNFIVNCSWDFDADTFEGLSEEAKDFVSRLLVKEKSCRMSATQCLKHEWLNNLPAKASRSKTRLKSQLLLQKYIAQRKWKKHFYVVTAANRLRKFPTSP

[2] = target: T2, Tyrosine-protein kinase TXK (Homo sapiens) (UniProt P42681); test: Selectivity interaction (Kinase panel (Z-LYTE Assay)) EUB0001632a TXK; conditions: at 10 µM
T2 sequence (whole entry): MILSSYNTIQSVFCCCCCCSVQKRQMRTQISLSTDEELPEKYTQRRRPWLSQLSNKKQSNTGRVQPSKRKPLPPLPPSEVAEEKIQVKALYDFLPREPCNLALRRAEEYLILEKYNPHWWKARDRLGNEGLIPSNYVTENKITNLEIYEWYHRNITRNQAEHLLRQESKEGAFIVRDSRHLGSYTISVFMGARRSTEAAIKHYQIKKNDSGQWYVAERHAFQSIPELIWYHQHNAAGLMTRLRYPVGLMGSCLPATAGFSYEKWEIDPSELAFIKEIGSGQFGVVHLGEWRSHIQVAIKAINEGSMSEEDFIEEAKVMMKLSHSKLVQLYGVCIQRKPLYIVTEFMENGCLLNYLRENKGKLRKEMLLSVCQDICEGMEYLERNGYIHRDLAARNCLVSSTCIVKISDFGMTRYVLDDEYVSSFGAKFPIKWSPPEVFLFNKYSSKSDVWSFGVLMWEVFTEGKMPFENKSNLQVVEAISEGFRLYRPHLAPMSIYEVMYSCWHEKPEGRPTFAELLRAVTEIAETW

[3] = target: Tyrosine-protein kinase JAK1 (Homo sapiens, UniProt P23458); conditions: at 10 µM
[4] = target: Wee1-like protein kinase 2 (Homo sapiens) (UniProt P0C1S8); test: Selectivity interaction (KinomeScan (DiscoverX)) EUB0000607a WEE2; conditions: at 10 µM
Activated CDC42 kinase 1 = Activated CDC42 kinase 1 (Homo sapiens, UniProt Q07912); test: Selectivity interaction (Kinase panel (Invitrogen)) EUB0000639a TNK2; conditions: at 200 nM
[5] = target: Ribosomal protein S6 kinase alpha-3 (Homo sapiens, UniProt P51812); test: Selectivity interaction (ActivX KiNativ screen (kinase selectivity in THP-1 cell lysates)) EUB0000639a RPS6KA3; format: subcellular; conditions: lysate, at 0.04 µM
[6] = target: T3, Ephrin type-A receptor 3 (Homo sapiens) (UniProt P29320); test: Selectivity interaction (KinomeScan (DiscoverX)) EUB0000655a EPHA3; conditions: at 10 µM
T3 sequence (whole entry): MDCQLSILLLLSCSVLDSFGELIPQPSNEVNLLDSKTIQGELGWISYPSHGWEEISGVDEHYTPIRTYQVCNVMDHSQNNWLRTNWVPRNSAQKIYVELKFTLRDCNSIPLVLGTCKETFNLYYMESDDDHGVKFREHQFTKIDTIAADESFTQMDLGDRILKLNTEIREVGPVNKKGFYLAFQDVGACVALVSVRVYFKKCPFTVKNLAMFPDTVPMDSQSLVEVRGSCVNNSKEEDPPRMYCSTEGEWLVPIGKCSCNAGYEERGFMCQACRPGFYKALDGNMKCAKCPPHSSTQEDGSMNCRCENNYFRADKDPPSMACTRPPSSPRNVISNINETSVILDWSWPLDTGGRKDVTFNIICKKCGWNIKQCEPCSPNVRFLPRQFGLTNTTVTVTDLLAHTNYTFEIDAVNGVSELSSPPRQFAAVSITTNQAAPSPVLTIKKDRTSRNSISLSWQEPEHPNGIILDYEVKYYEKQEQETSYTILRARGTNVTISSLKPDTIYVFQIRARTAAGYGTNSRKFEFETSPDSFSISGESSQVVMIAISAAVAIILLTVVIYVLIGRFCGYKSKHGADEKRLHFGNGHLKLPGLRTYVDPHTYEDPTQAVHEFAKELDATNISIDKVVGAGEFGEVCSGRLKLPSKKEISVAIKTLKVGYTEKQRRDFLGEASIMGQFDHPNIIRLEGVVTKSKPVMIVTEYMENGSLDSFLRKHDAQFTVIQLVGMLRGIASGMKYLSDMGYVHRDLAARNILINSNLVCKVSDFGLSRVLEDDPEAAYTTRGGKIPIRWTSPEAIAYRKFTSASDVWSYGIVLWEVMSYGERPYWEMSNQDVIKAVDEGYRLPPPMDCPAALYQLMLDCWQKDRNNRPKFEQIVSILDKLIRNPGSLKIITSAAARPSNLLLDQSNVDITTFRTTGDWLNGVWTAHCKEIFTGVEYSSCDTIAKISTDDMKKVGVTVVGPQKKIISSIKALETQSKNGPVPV

Chain of Ribosomal protein S6 kinase alpha-3 (P51812 whole entry): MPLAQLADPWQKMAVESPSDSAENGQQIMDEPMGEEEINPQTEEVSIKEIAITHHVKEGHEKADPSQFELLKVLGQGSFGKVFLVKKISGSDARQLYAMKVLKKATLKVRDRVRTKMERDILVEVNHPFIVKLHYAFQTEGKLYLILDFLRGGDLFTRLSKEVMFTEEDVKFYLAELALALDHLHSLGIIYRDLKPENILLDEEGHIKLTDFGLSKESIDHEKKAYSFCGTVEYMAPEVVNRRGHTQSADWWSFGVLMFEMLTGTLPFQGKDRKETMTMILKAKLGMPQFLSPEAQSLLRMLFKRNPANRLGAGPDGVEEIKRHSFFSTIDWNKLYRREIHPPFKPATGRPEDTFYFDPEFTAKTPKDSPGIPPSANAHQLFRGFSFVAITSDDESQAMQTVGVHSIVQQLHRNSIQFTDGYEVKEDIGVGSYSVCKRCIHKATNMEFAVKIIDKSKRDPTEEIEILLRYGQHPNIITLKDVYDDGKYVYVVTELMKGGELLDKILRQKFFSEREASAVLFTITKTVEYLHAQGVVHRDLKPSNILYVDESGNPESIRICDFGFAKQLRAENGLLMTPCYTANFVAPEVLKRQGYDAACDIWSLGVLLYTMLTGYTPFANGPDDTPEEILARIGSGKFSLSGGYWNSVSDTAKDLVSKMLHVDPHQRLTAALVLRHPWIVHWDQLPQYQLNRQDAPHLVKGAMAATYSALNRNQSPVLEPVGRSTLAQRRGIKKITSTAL
Chain of Wee1-like protein kinase 2 (Homo sapiens) (P0C1S8 whole entry, looked up): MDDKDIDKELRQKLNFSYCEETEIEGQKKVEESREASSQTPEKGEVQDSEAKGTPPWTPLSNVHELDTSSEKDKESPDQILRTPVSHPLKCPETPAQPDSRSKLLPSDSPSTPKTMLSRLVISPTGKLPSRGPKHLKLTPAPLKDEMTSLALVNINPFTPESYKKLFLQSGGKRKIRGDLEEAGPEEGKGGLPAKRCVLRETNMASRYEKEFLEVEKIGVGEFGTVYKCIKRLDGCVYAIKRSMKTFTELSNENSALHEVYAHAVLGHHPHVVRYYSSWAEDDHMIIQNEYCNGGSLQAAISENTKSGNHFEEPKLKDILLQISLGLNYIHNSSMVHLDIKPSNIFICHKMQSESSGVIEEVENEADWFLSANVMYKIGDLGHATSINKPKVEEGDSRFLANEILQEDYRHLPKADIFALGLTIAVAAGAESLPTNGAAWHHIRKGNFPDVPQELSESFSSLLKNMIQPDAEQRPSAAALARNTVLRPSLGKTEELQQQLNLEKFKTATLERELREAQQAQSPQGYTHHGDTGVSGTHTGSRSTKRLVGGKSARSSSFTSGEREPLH
Chain of Tyrosine-protein kinase JAK1 (P23458 whole entry): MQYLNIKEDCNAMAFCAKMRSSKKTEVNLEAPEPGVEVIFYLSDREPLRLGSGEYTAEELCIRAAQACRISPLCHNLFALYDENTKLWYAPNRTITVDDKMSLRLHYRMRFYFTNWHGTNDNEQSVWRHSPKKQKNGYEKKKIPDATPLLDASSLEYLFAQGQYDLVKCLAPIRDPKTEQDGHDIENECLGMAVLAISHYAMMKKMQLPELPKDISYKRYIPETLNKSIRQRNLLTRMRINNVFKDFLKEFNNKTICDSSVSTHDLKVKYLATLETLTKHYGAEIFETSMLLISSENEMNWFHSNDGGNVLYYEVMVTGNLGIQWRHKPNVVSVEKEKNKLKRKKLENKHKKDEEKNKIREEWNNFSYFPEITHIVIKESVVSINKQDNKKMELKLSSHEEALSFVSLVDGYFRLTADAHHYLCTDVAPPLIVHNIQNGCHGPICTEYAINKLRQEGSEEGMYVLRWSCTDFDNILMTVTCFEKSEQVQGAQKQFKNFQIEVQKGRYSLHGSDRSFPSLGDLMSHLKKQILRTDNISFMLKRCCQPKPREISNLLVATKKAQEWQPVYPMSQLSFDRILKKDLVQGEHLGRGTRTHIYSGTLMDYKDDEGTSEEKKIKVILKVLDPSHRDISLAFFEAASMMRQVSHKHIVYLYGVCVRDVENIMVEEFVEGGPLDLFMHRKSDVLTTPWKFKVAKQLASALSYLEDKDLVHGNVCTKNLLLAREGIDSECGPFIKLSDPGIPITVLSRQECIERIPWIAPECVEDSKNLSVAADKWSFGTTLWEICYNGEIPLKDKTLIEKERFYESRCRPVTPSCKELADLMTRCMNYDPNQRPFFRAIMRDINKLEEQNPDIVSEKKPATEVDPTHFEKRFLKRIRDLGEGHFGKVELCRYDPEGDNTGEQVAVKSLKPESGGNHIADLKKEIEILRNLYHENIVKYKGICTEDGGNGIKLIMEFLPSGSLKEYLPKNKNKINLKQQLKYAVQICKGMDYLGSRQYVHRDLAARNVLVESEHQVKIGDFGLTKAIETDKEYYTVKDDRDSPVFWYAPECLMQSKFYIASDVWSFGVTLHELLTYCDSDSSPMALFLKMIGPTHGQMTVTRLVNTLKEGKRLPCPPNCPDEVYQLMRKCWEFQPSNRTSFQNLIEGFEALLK
Chain of Activated CDC42 kinase 1 (Q07912 whole entry, looked up): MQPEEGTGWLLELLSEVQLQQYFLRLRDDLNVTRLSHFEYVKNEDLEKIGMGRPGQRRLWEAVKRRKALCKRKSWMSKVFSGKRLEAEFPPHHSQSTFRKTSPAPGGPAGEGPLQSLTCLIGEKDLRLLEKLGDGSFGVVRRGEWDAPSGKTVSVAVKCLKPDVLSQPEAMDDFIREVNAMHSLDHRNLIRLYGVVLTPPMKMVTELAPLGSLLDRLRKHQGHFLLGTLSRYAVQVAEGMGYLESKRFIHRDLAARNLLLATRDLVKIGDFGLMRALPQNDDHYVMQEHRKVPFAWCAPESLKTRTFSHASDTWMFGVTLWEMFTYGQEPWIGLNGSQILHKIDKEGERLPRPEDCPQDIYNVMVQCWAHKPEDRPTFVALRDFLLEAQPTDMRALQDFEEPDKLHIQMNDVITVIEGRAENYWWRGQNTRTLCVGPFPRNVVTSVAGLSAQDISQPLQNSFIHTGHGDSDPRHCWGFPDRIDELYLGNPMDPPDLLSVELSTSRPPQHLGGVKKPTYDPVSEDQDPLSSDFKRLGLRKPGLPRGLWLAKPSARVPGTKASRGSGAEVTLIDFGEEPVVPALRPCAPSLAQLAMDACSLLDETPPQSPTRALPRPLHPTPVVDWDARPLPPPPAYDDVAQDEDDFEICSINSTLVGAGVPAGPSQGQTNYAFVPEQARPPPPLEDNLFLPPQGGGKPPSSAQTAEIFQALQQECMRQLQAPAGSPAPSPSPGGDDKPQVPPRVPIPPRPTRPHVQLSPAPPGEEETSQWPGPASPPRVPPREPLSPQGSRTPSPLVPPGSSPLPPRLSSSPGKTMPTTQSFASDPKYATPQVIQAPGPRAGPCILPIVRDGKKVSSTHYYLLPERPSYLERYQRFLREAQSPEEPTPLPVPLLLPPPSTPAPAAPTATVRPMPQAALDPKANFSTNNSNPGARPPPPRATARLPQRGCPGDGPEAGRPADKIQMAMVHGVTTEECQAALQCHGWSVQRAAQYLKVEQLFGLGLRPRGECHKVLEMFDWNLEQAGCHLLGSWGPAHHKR

With `Cc1cc(F)c(C(=O)Nc2cccc(-c3nncn3C(C)C)n2)cc1-n1cnc(C2CC2)c1` the % of control [1] was 100%.
`Cn1cc(-n2cnc3c(NCc4nc5cc(Cl)c(Cl)cc5[nH]4)nc(N4CCOCC4)nc32)cn1` gave a % of control [2] of 12.2%.
`Cc1cc([C@@H](C)Nc2ccccc2C(=O)O)c2nc(N3CCOCC3)cc(=O)n2c1` [AZD-6482] was tested, and the % of control [3] was 100%.
`CNC(=O)Nc1ccc(-c2nc(N3CC4CCC(C3)O4)c3cnn(C4CCC5(CC4)OCCO5)c3n2)cc1` gave a % of control [4] of 100%.
Compound `CC[C@@H]1[C@H](F)C(=O)N[C@@H]1COc1nccc2cc(C(N)=O)c(OC)cc12` [ZIMLOVISERTIB] has a % of inhibition (Activated CDC42 kinase 1) of -1.67% and a % of inhibition [5] of 16.1%.
With `CN(C)CCOc1ccc(-c2nc(-c3ccncc3)c(-c3ccc4c(c3)CC/C4=N\O)[nH]2)cc1` the % of control [6] was 99%.
